| SMILES | CH4 permeability [Barrer] | CO2 permeability [Barrer] | N2 permeability [Barrer] | O2 permeability [Barrer] | H2 permeability [Barrer] |
| --- | --- | --- | --- | --- | --- |
| *c1ccc(-c2ccc(Oc3ccc4c(c3)C3(CC4(C)C)CC(C)(C)c4ccc(Oc5ccc(-c6ccc(N7C(=O)c8ccc(Oc9ccc(C(C)(C)c%10ccc(Oc%11ccc%12c(c%11)C(=O)N(*)C%12=O)cc%10)cc9)cc8C7=O)cc6)cc5C(F)(F)F)cc43)c(C(F)(F)F)c2)cc1 (repeat unit) | 0.35 | 23.9 | 1.02 | 9.92 |  |
| *CC(*)c1ccc(C[Si](C)(C)C)cc1 (repeat unit) | 7.8 | 79.8 |  | 19.9 | 54 |
| *O[Si](*)(C)CCC(F)(F)F (repeat unit) | 201 | 1390 | 88.3 | 200 |  |
| */C(C)=C(/*)c1ccc([Si](C)(C)C)cc1 (repeat unit) | 200 | 950 | 100 | 240 | 510 |
| *Oc1ccc(S(=O)(=O)c2ccc(Oc3c(C)cc(-c4cc(C)c(*)c(C)c4C)c(C)c3C)cc2)cc1 (repeat unit) | 0.944 | 25.5 | 1.2 | 6 |  |
| *c1ccc2c(c1)C(=O)n1c-2nc2ccc(-c3ccc4c(c3)nc3n4C(=O)c4ccc(C(*)(C(F)(F)F)C(F)(F)F)cc4-3)cc21 (repeat unit) |  |  | 1.44 | 7.75 | 74.4 |
| *Oc1cc2c(cc1O*)C1(CC2(C)CC)c2cc3c(cc2C(C)(CC)C1C)Oc1c(C#N)c(*)c(*)c(C#N)c1O3 (repeat unit) | 580 | 6100 | 320 | 820 | 2100 |
| *c1c(C)cc(Cc2cc(C)c(N3C(=O)c4ccc(-c5ccc6c(c5)C(=O)N(*)C6=O)cc4C3=O)c(C)c2)cc1C (repeat unit) | 0.818 | 22.4 | 0.913 | 4.73 |  |
| *Oc1cc2c(cc1O*)C1(c3cc(C(C)(C)C)ccc3-2)c2cc(C(C)(C)C)ccc2-c2cc3c(cc21)Oc1c(C#N)c(*)c(*)c(C#N)c1O3 (repeat unit) | 1700 | 13200 | 815 | 2310 | 5150 |
| *CC(*)c1ccc(S(=O)(=O)[O-])cc1 (repeat unit) | 0.119 | 4.15 | 0.101 | 0.845 | 10.8 |
| *Oc1ccc(C(C)(C)c2ccc(OCCC(*)O)cc2)cc1 (repeat unit) | 0.02 | 0.5 | 0.019 | 0.09 |  |
| *c1ccc(*)c(C(=O)c2ccccc2)c1 (repeat unit) | 0.36 | 14.2 | 0.4 | 2.99 | 27.4 |
| *c1ccc(Oc2ccc(-c3ccc(-c4ccc(Oc5ccc(N6C(=O)c7ccc(C(c8ccc9c(c8)C(=O)N(*)C9=O)(C(F)(F)F)C(F)(F)F)cc7C6=O)cc5)c(C(F)(F)F)c4)s3)cc2C(F)(F)F)cc1 (repeat unit) | 1.68 | 45.3 | 1.78 | 11.7 |  |
| *Oc1cc2c(cc1O*)C1(c3cc(C)ccc3-2)c2cc(C)ccc2-c2cc3c(cc21)Oc1c(C#N)c(*)c(*)c(C#N)c1O3 (repeat unit) | 582 | 8500 | 380 | 1510 | 4430 |
| *C(=C(*)c1ccc2c(c1)C1(CC1)c1ccccc1-2)c1ccccc1 (repeat unit) | 810 | 3200 | 400 | 660 | 1400 |
| *c1ccc(Cc2ccc(N3C(=O)c4ccc(C(c5ccc6c(c5)C(=O)N(*)C6=O)(C(F)(F)F)C(F)(F)F)cc4C3=O)c(Cl)c2)cc1Cl (repeat unit) | 0.121 | 6.78 | 0.269 | 1.81 |  |
| *Nc1ccc(S(=O)(=O)c2ccc(NC(=O)c3cc(C(*)=O)cc(-c4ccccc4)c3)cc2)cc1 (repeat unit) | 0.11 | 3.2 | 0.13 | 0.75 | 7.6 |
| *c1ccc(C2(c3ccc(N4C(=O)c5ccc(C(c6ccc7c(c6)C(=O)N(*)C7=O)(C(F)(F)F)C(F)(F)F)cc5C4=O)cc3)c3ccccc3-c3ccccc32)cc1 (repeat unit) | 1.96 | 58.9 | 3.3 |  |  |
| */C(C)=C(/*)[Si](C)(C)CCCCCCCC (repeat unit) | 13 | 100 | 19 | 23 | 47 |
| */C=C/C1CC(*)CC1[Si](C)(C)C (repeat unit) | 17 | 89 | 7.2 | 30 | 140 |
| *c1cccc(Oc2ccc(C(c3ccc(Oc4cccc(N5C(=O)c6ccc(C(c7ccc8c(c7)C(=O)N(*)C8=O)(C(F)(F)F)C(F)(F)F)cc6C5=O)c4)cc3)(C(F)(F)F)C(F)(F)F)cc2)c1 (repeat unit) | 0.136 | 6 | 0.241 | 1.35 | 21 |
| *c1ccc(Cc2ccc(N3C(=O)c4ccc(-c5ccc6c(c5)C(=O)N(*)C6=O)cc4C3=O)c(C)c2)cc1C (repeat unit) | 0.0278 | 1.41 | 0.0483 | 0.369 |  |
| *C(=C(*)c1ccc2c(c1)C1(CC1)c1ccccc1-2)c1ccc([Si](C)(C)C)cc1 (repeat unit) | 1500 | 4100 | 540 | 1000 | 1900 |
| *=CC1CC(C=*)C2C(=O)N(c3ccccc3)C(=O)C12 (repeat unit) | 0.54 | 11.4 | 0.31 | 1.44 | 11 |
| *C(=C(*)c1ccc2c(c1)C(C)(C)CC2(C)C)c1cc(F)cc(F)c1 (repeat unit) | 29100 | 36100 | 13100 | 15200 | 28500 |
| *C(C(=O)OC(C)CC(C)C)C(*)C(=O)OC(C)(C)C (repeat unit) |  |  | 16 | 49 | 169 |
| *OC1OC(COCC)C(*)C(OCC)C1OCC (repeat unit) | 9.2 | 91 | 4.3 | 15 | 68 |
| *c1ccc2c(c1)-c1nc3ccc(-c4ccc5c(c4)nc4n5C(=O)c5cc(C(c6ccc7c(c6)C(=O)N(c6cc(C(c8ccc(O)c(N9C(=O)c%10ccc(C(*)(C(F)(F)F)C(F)(F)F)cc%10C9=O)c8)(C(F)(F)F)C(F)(F)F)ccc6O)C7=O)(C(F)(F)F)C(F)(F)F)ccc5-4)cc3n1C2=O (repeat unit) |  | 15 | 0.53 | 3.2 |  |
| *c1ccc(C2(c3ccc(*)cc3)OC(=O)c3ccccc32)cc1 (repeat unit) | 2.88 | 72 | 2.39 | 11 | 74 |

— a polymer gas permeability compilation
